Marks after values point to notes of the source that are not given here.
Tests used:
PARP1 = biological target: T1, PARP1 (Mus musculus, UniProt P11103); conditions: cortical neuron cultures; cited from earlier work
T1 construct: host or cells: cortical neuron cultures

PARP-2 = conditions: cited from earlier work
rat = conditions: cited from earlier work; for Anti-inflammatory effects in gut inflammation: post-injury administration; for Accumulation of poly (ADP-ribose) in ileum and colon: splanchnic artery occlusion-shocked rats, dinitrobenzene sulfonic acid-treated rats
mice [1] = conditions: chronic administration; cited from earlier work
C57BL/6 ApoE−/− mice [2] = assay: Atherosclerotic plaque size and number in aortas of high-fat-diet-fed ApoE−/− mice (en face Oil-Red-O staining); assay type: in vivo
Excerpt: (§1) C57BL/6 ApoE^−/− mice (Jackson Laboratory, Bar Harbor, Me.) were housed and bred in a pathogen-free animal care facility at LSUHSC (New Orleans, La.), and were given full access to laboratory rodent chow and water. Principles of laboratory animal care were followed (NIH publication No. 86-23, revised 1985). Experimental protocols were approved by the LSUHSC Animal Care and Use Committee. The animals were divided into six groups to provide proper controls, and to allow calculation of the significance of the results. All Groups were ApoE^−/− mice. The mice were fed a regular diet or a high fat diet for 12 or 16 weeks; in some cases mice that had been fed a high fat diet for 12 weeks were switched to a regular diet for the final 4 weeks (16 weeks total). Some mice were given injections of TIQ-A during the final four weeks, while others were injected with vehicle as controls:
(§2) The high-fat diet (Harlan Teklad, Madison, Wis.) contained 21% fat by weight (0.15% cholesterol). The regular diet was normal laboratory rodent chow. Controls were given i.p. injections of vehicle three times per week, during the final four weeks. Experimental Groups received i.p. injections of the PARP inhibitor thieno[2,3-c]isoquinolin-5-one (TIQ-A) (Sigma-Aldrich, St Louis, Mo.) at the rate of 3 mg/kg, three times per week, during the last 4 weeks. At the conclusion of each protocol, the mice were fasted, anesthetized with ketamine/xylazine (60 and 3 mg/kg, respectively), and blood was drawn for serum preparation.
(§3) Perfusion-fixed aortas were dissected and prepared either for en face, Oil-Red-O staining using standard protocols, or for embedding in paraffin. Tissues were sectioned and were stained following standard protocols with haematoxylin and eosin (H&E), trichrome staining, or immunohistochemistry (IHC). Lesion areas were assessed as described in K. Oumona-Benachour et al. (2007). IHC used antibodies against murine smooth muscle actin (SMA) (Santa Cruz Biotechnologies, Santa Cruz, Calif.), or antibodies against CD68. Immunoreactivity was assessed in captured images of immunostained stained sections as described in K. Oumona-Benachour et al. (2007).

C57BL/6 ApoE−/− mice [3] = assay: Histology, trichrome staining and immunohistochemistry (SMA, CD68, MCP-1) of atherosclerotic plaques; assay type: in vivo
Excerpt: as §1, §2, §3

[4] = Fasted plasma cholesterol and LDL (Cholestech LDX); assay type: in vivo, mice; conditions: after overnight fasting; Group 6
Protocol: as §2
Plasma cholesterol and LDL were analyzed using a commercially available kit according to the manufacturer's instructions (Cholestech LDX, Hayward, Calif.).

MCP-1 = assay: Quantitative RT-PCR of MCP-1 in thoracic aorta; assay type: in vivo, mice; conditions: normalized versus β-actin
Excerpt: (§4) RNA was extracted from thoracic aortas, and cDNA was generated by standard methods. PCR Primers for MCP-1 and for actin were as described in C. Hans et al., “Thieno[2,3-c]isoquinolin-5-one (TIQ-A), a potent poly(ADP-ribose) polymerase inhibitor, promotes atherosclerotic plaque regression in high fat diet-fed ApoE-deficient mice: effects on inflammatory markers and lipid content,” J. Pharm. Exp. Ther., vol. 329, pp. 150-158 (2009, published online Jan. 5, 2009). Amplification, detection, and data analysis were performed with the iCycler real-time PCR system (Bio-Rad Laboratories, Hercules, Calif.).
Several pathways may play a role in the regression of plaques, including some that interfere with the recruitment and retention of monocytes, macrophages and foam cells, cells that appear to be required for the maintenance of advanced plaques. In particular, the continuing recruitment of macrophages into lesions is considered a major factor in maintaining the size and complexity of atherosclerotic plaques. […] To confirm that the decrease in CD68-positive cells was associated with reduced expression of chemotactic factors, we used quantitative RT-PCR to monitor the effect of TIQ-A on MCP-1 expression. We measured transcription of the MCP-1 gene in the thoracic aorta using primers specific for murine MCP-1. Measured values were normalized versus measured levels of transcription of the β-actin gene.

ICAM-1 = assay: Quantitative RT-PCR of ICAM-1 in thoracic aorta; assay type: in vivo; conditions: thoracic aortas of Group 6 mice
Excerpt: as §4
In addition to MCP-1, the recruitment and their retention of monocytes and macrophages within atherosclerotic plaques requires the expression of adhesion molecules by endothelial and intimal cells. In particular, the adhesion molecule ICAM-1 expression is expressed in the later stages of plaques.

TNF = assay: Quantitative RT-PCR of TNF; assay type: in vivo, mice; conditions: Group 6
CCR2 = assay: Expression of the MCP-1 receptor CCR2; assay type: in vivo; conditions: TIQ-A-treated mice
C57BL/6 mice [5] = assay: Eosinophil and inflammatory cell infiltration in lungs and BAL fluid of OVA-sensitized and challenged mice; assay type: in vivo
Protocol: (§5) Mice were bred in a pathogen-free facility at the Louisiana State University Health Science Center (LSUHSC), New Orleans, La., and were given unlimited access to sterilized chow and water. Animal maintenance, experimental protocols, and procedures were approved by the LSUHSC Animal Care & Use Committee. C57BL/6 mice were purchased from Jackson Laboratories (Bar Harbor, Me.). Six-week old C57BL/6 mice (n z 5) were sensitized with two, 100 μg i.p. injections of Grade V chicken ovalbumin (OVA) (Sigma-Aldrich, St. Louis Mo.), mixed with 2 mg aluminum hydroxide in saline. The two injections were given seven days apart. One week after the second sensitization the mice were placed in a Plexiglas chamber and challenged with aerosolized ovalbumin (3% OVA in saline, generated by a Bennett nebulizer, DeVilbiss, Pa.). The challenged mice were held in the chamber with the aerosolized OVA for 30 min. Additional groups of mice were treated by the same protocol, except that they received 6 mg/kg TIQ-A (i.p.) 2 hours prior to challenge, 1 hour post-challenge, or 6 hours post-challenge with OVA. Control groups were neither sensitized, nor challenged. The mice used in each experiment were from the same litter or the same family. Mice were allowed to recover, and then killed by CO2 asphyxiation after 24 or 48 hours. The sacrificed mice were subjected to bronchio-alveolar lavage (BAL), or their lung tissues were dissected, fixed, and processed for histological analysis.
(§6) A final volume of 5 ml saline was used in BAL to assess inflammatory cells (48 hours post OVA-challenge), or 1 ml saline was used to assess cytokines or IgE (24 hours post OVA-challenge). Formalin-fixed lungs were sectioned and subjected to haematoxylin and eosin (H&E), Periodic Acid-Schiff (PAS)-staining using standard protocols. Mucin was assessed essentially as described in L. Whittaker et al., Am. J. Respir. Cell. Mol. Biol., vol. 27, pp. 593-602 (2002). […] OVA-specific IgE was quantified by a sandwich ELISA (Serotec, Raleigh, N.C.) essentially as described in Oumona et al. (2006).

IL-4, IL-5 and IL-13 = assay: Th2 cytokines in BAL fluid of OVA-challenged mice (Bio-Rad Bioplex); assay type: in vivo; conditions: BAL 24 hours after challenge; TIQ-A after versus before OVA challenge
Protocol: (§7) Mice were bred in a pathogen-free facility at the Louisiana State University Health Science Center (LSUHSC), New Orleans, La., and were given unlimited access to sterilized chow and water. Animal maintenance, experimental protocols, and procedures were approved by the LSUHSC Animal Care & Use Committee. C57BL/6 mice were purchased from Jackson Laboratories (Bar Harbor, Me.). Six-week old C57BL/6 mice (n z 5) were sensitized with two, 100 μg i.p. injections of Grade V chicken ovalbumin (OVA) (Sigma-Aldrich, St. Louis Mo.), mixed with 2 mg aluminum hydroxide in saline. The two injections were given seven days apart. One week after the second sensitization the mice were placed in a Plexiglas chamber and challenged with aerosolized ovalbumin (3% OVA in saline, generated by a Bennett nebulizer, DeVilbiss, Pa.). The challenged mice were held in the chamber with the aerosolized OVA for 30 min. […]
(§8) A final volume of 5 ml saline was used in BAL to assess inflammatory cells (48 hours post OVA-challenge), or 1 ml saline was used to assess cytokines or IgE (24 hours post OVA-challenge). […] Mucin was assessed essentially as described in L. Whittaker et al., Am. […] OVA-specific IgE was quantified by a sandwich ELISA (Serotec, Raleigh, N.C.) essentially as described in Oumona et al. (2006).

OVA-specific IgE = OVA-specific IgE in BAL fluid (sandwich ELISA); assay type: in vivo, mice; conditions: 24 hours post-challenge
Protocol: as §7, §8

C57BL/6 mice [6] = assay: Mucus production in airways of OVA-challenged mice (PAS staining, histological mucin index); assay type: in vivo
Protocol: as §5, §6

C57BL/6 mice [7] = assay: Airway hyperresponsiveness: lung resistance to methacholine by forced oscillation; assay type: in vivo; conditions: TIQ-A post-OVA challenge; methacholine 50 mg/ml, 24 hours after OVA exposure
Protocol: as §5, with “The mice used in each experiment were from the same litter or the same family. Mice were allowed to recover, and then killed by CO2 asphyxiation after 24 or 48 hours. The sacrificed mice were subjected to bronchio-alveolar lavage (BAL), or their lung tissues were dissected, fixed, and processed for histological analysis.” left out
Twenty-four hours after OVA challenge lung resistance to increasing doses of methacholine (MeCh, Sigma; 0, 25, and 50 mg/ml in isotonic saline) was assessed by forced oscillation, essentially as described in D. You et al., Respir. […]

mice [8] = conditions: administration prior to allergen challenge; cited from earlier work
[9] = Group 3: high fat diet for 16 weeks, TIQ-A 3 mg/kg i.p. three times per week during last 4 weeks
[10] = Group 6: high fat diet for 12 weeks, then regular diet during last 4 weeks with TIQ-A 3 mg/kg i.p. three times per week

T1 sequence (P11103 2-1013 limits assumed): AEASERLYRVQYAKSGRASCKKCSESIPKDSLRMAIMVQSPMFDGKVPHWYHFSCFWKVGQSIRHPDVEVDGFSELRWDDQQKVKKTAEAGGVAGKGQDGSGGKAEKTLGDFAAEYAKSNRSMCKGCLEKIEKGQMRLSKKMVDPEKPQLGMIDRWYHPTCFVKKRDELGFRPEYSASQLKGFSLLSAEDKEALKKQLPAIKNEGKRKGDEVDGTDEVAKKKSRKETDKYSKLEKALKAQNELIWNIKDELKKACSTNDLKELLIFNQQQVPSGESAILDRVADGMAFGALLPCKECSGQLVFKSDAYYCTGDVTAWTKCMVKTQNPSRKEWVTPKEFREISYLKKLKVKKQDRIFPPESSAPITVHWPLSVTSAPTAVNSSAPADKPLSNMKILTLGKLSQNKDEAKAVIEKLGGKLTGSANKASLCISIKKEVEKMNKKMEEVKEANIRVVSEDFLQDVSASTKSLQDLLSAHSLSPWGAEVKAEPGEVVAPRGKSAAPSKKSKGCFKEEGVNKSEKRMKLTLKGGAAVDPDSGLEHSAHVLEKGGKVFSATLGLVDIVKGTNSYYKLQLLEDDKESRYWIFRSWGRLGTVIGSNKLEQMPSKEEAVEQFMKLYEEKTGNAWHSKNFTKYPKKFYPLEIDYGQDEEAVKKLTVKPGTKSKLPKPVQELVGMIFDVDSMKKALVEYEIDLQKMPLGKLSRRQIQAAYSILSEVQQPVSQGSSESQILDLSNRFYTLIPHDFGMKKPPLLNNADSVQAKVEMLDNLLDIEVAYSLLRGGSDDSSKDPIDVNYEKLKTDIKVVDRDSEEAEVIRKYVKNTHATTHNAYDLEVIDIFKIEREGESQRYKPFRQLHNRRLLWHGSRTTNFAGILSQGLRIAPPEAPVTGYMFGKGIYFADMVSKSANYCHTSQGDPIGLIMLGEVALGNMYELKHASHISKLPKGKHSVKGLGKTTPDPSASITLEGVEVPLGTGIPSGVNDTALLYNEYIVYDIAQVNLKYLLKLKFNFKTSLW

O=C1NCCc2c(OCCCCN3CCCCC3)cccc21 [3,4-dihydro-5-[4-(1-piperidinyl)butoxy]-1(2H)-isoquinolinone]
Induced PARP1 activation (PARP1): inhibited

O=C(Oc1cccc2cnccc12)c1ccccc1 [5-benzoyloxyisoquinoline]
Selectivity for the PARP-2 isotype over the PARP-1 isotype (PARP-2): 60 fold

CN1CCN(Cc2ccc3c(c2)-c2n[nH]c(=O)c4cccc(c24)O3)CC1 [GPI 15427, 10-(4-methyl-piperazin-1-ylmethyl)-2H-7-oxa-1,2-diaza-benzo[de]anthracen-3-one]
Anti-inflammatory effects in gut inflammation (rat): potent anti-inflammatory effects
Accumulation of poly (ADP-ribose) in ileum and colon (rat): diminished

CN1CCN(c2ccc3[nH]c(=O)c4ccccc4c3n2)CC1 [GPI 16539, 2-(4-methyl-piperazin-1-yl)-5H-benzo[c][1,5]naphthyridin-6-one]
Anti-inflammatory effects in gut inflammation (rat): potent anti-inflammatory effects
Accumulation of poly (ADP-ribose) in ileum and colon (rat): diminished

CN(C)CC(=O)Nc1ccc2[nH]c(=O)c3ccccc3c2c1 [PJ34]
Plaque formation in atherosclerosis (mice [1]): markedly decreased

O=C1N=C2SCC=C2c2ccccc21 [TIQ-A, thieno[2,3-c]isoquinolin-5-one]
Plaque Number (mean ± S.D.) Abdominal Aorta (C57BL/6 ApoE−/− mice [2]; [9]): 5.7 ± 0.94
Plaque Number (mean ± S.D.) Thoracic Aorta (C57BL/6 ApoE−/− mice [2]; [9]): 6.0 ± 1.53
Plaque size (median ± S.D.) Abdominal Aorta (C57BL/6 ApoE−/− mice [2]; [9]): 3.06 ± 0.66 mm^2
Plaque size (median ± S.D.) Thoracic Aorta (C57BL/6 ApoE−/− mice [2]; [9]): 7.18 ± 2.02* mm^2
Plaque number in the abdominal region (in words) (C57BL/6 ApoE−/− mice [2]; Group 6): significant reduction in plaque number
Regression of established plaques, thoracic and abdominal regions of the aorta (C57BL/6 ApoE−/− mice [2]; Group 6): statistically significant regression of established plaques
Plaque Number (mean ± S.D.) Abdominal Aorta (C57BL/6 ApoE−/− mice [2]; [10]): 4.0 ± 1.29
Plaque Number (mean ± S.D.) Thoracic Aorta (C57BL/6 ApoE−/− mice [2]; [10]): 4.20 ± 0.69
Plaque size (median ± S.D.) Abdominal Aorta (C57BL/6 ApoE−/− mice [2]; [10]): 1.96 ± 0.48 mm^2
Plaque size (median ± S.D.) Thoracic Aorta (C57BL/6 ApoE−/− mice [2]; [10]): 5.12 ± 1.68*‡† mm^2
Lesion size in the abdominal region (in words) (C57BL/6 ApoE−/− mice [2]; Group 6, difference not statistically significant): trended lower
CD68 immunoreactivity (C57BL/6 ApoE−/− mice [3]; Group 6): significantly reduced
Collagen density by trichrome staining (C57BL/6 ApoE−/− mice [3]; Group 6): significant increase in collagen density
Fibrous cap by trichrome staining (C57BL/6 ApoE−/− mice [3]; Group 6): much thicker fibrous cap
Foam cells in plaques (C57BL/6 ApoE−/− mice [3]; Group 6): fewer foam cells
Plaque size by microscopic examination (C57BL/6 ApoE−/− mice [3]; Group 6): much smaller
Smooth muscle actin immunoreactivity (C57BL/6 ApoE−/− mice [3]; Group 6): significant increase
MCP-1 immunoreactivity of plaques (C57BL/6 ApoE−/− mice [3]; TIQ-A-treated mice): decrease
LDL level [4]: significantly lowered
Total cholesterol level [4]: significantly lowered
Expression of MCP-1 (RT-PCR) (MCP-1): significantly reduced
Expression of ICAM-1 (quantitative RT-PCR) (ICAM-1): significantly reduced
TNF expression (quantitative RT-PCR) (TNF): significantly down-regulated
Expression of the MCP-1 receptor, CCR2 (CCR2): no difference
Eosinophil recruitment into lungs (C57BL/6 mice [5]; TIQ-A 6 mg/kg i.p. prior to OVA-challenge): significantly suppressed
Number of eosinophils in BAL fluids (C57BL/6 mice [5]; post-challenge administration compared with administration prior to challenge): substantially below that seen when the drug was administered prior to challenge
Infiltration of inflammatory cells into the airways (C57BL/6 mice [5]; single TIQ-A i.p. injection one hour or six hours after challenge): greatly reduced
Production of IL-4, IL-5 and IL-13 in BAL fluids (IL-4, IL-5 and IL-13): more effectively suppressed by administering TIQ-A after the OVA challenge than before challenge
IgE production (OVA-specific IgE; TIQ-A after OVA challenge): almost completely blocked
Levels of OVA-specific IgE in BAL fluid (OVA-specific IgE; TIQ-A prior to OVA challenge): moderate reduction
PAS-positive goblet cells in lungs (C57BL/6 mice [6]; TIQ-A one or six hours after challenge): nearly absent
Mucus production (histological mucin index) (C57BL/6 mice [6]; TIQ-A prior to OVA challenge): significantly reduced
Mucus production (histological mucin index) (C57BL/6 mice [6]; post-challenge treatment with TIQ-A): effectively blocked mucus production completely
Airway hyperresponsiveness to inhaled methacholine (C57BL/6 mice [7]): almost completely blocked
Eosinophil infiltration and associated mucus production in lung airways (mice [8]): suppressed
Th2 cytokines, including IL-4 IL-5 and IL-13 (mice [8]): suppressed

CN(C)[C@@H]1C(O)=C(C(N)=O)C(=O)[C@@]2(O)C(O)=C3C(=O)c4c(O)ccc(Cl)c4[C@@H](O)[C@H]3C[C@@H]12 [demeclocycline]
Rank order of potency of tetracycline derivatives (PARP1): minocycline>doxycycline>demeclocycline>chlortetracycline

— patent US20110028420A1, “Regression of Established Atherosclerotic Plaques, and Treating Sudden-Onset Asthma Attacks, using PARP Inhibitors” (priority 2008, published 2011)
